# Assay results from PubChem BioAssay AID2060903 (Molecular Pharmacology Branch, DTP, NCI, 2025).
# Where “and” joins values, the source holds several entries; their conditions need not be identical. Equal values may be shown once.
# Test system: 377384-186-R-J1-PDC complex spheroid viability
# Assay: Anticancer human tumor 377384-186-R-J1-PDC patient-derived pancreatic carcinoma cell line growth inhibition [RAS]
# Settings: for viability, T/C: stronger effect = lower value
# Outline: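 Tumour cells grown as complex spheroids with HUVEC endothelial cells and mesenchymal stem cells, treated with RAS pathway inhibitor combinations. Each agent spans half-log steps from near clinical Cmax, or 10 microM where Cmax is unknown.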
# 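Also: spheroids exposed to compounds for seven days before readout.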
smiles,measurement,setting,value
Nc1ccn(C2OC(CO)C(O)C2(F)F)c(=O)n1 (stereo not given),"viability, T/C",compound 0.01 µM,36.6% [middle of 4 runs]
same,"viability, T/C",compound 0.0316 µM,21.4% and 7.24% and 10.1% (2×)
same,"viability, T/C",compound 0.1 µM,5.39% [middle of 4 runs]
same,"viability, T/C",compound 0.316 µM,4.06% [middle of 4 runs]
same,"viability, T/C",compound 1 µM,3.19% [middle of 4 runs]
same,IC50,curve of compound,6.44 nM [middle of 4 runs]
NC1c2ccccc2OC12CCN(c1cnc3c(N4CCCc5ncccc54)n[nH]c3n1)CC2 (stereo not given) + C#Cc1c(F)ccc2cc(O)cc(-c3ncc4c(N5CC6CCC(C5)N6)nc(OCC56CCCN5CC(F)C6)nc4c3F)c12,IC50,"curve of first compound, second compound 0.0316 µM",< 0.0316 µM
same,IC50,"curve of first compound, second compound 0.1 µM",< 0.0316 µM
same,IC50,"curve of first compound, second compound 0.316 µM",< 0.0316 µM
same,IC50,"curve of first compound, second compound 1 µM",< 0.0316 µM
same,IC50,"curve of first compound, second compound 3.16 µM",< 0.0316 µM
same,IC50,"curve of first compound, second compound 10 µM",< 0.0316 µM
same,"viability, T/C","second compound 0.0316 µM, first compound 0.0316 µM",2.52%
same,"viability, T/C","second compound 0.0316 µM, first compound 0.1 µM",1.69%
same,"viability, T/C","second compound 0.0316 µM, first compound 0.316 µM",1.2%
same,"viability, T/C","second compound 0.0316 µM, first compound 1 µM",0.72%
same,"viability, T/C","second compound 0.0316 µM, first compound 3.16 µM",0.33%
same,"viability, T/C","second compound 0.0316 µM, first compound 10 µM",0.32%
same,"viability, T/C","second compound 0.1 µM, first compound 0.0316 µM",1.81%
same,"viability, T/C","second compound 0.1 µM, first compound 0.1 µM",1.39%
same,"viability, T/C","second compound 0.1 µM, first compound 0.316 µM",0.82%
same,"viability, T/C","second compound 0.1 µM, first compound 1 µM",0.62%
same,"viability, T/C","second compound 0.1 µM, first compound 3.16 µM",0.38%
same,"viability, T/C","second compound 0.1 µM, first compound 10 µM",0.25%
same,"viability, T/C","second compound 0.316 µM, first compound 0.0316 µM",1.2%
same,"viability, T/C","second compound 0.316 µM, first compound 0.1 µM",0.66%
same,"viability, T/C","second compound 0.316 µM, first compound 0.316 µM",0.72%
same,"viability, T/C","second compound 0.316 µM, first compound 1 µM",0.67%
same,"viability, T/C","second compound 0.316 µM, first compound 3.16 µM",0.35%
same,"viability, T/C","second compound 0.316 µM, first compound 10 µM",0.35%
same,"viability, T/C","second compound 1 µM, first compound 0.0316 µM",1.27%
same,"viability, T/C","second compound 1 µM, first compound 0.1 µM",1.46%
same,"viability, T/C","second compound 1 µM, first compound 0.316 µM",0.57%
same,"viability, T/C","second compound 1 µM, first compound 1 µM",0.5%
same,"viability, T/C","second compound 1 µM, first compound 3.16 µM",0.21%
same,"viability, T/C","second compound 1 µM, first compound 10 µM",0.22%
same,"viability, T/C","second compound 3.16 µM, first compound 0.0316 µM",0.86%
same,"viability, T/C","second compound 3.16 µM, first compound 0.1 µM",1.11%
same,"viability, T/C","second compound 3.16 µM, first compound 0.316 µM",0.52%
same,"viability, T/C","second compound 3.16 µM, first compound 1 µM",0.29%
same,"viability, T/C","second compound 3.16 µM, first compound 3.16 µM",0.29%
same,"viability, T/C","second compound 3.16 µM, first compound 10 µM",0.34%
same,"viability, T/C","second compound 10 µM, first compound 0.0316 µM",0.92%
same,"viability, T/C","second compound 10 µM, first compound 0.1 µM",0.33%
same,"viability, T/C","second compound 10 µM, first compound 0.316 µM",0.31%
same,"viability, T/C","second compound 10 µM, first compound 1 µM",0.14%
same,"viability, T/C","second compound 10 µM, first compound 3.16 µM",0.19%
same,"viability, T/C","second compound 10 µM, first compound 10 µM",0.12%
C=CC(=O)Nc1cc(Nc2nccc(-c3cn(C)c4ccccc34)n2)c(OC)cc1N(C)CCN(C)C,"viability, T/C",compound 0.00316 µM,95.6% [middle of 4 runs]
same,"viability, T/C",compound 0.01 µM,97.8% [middle of 4 runs]
same,"viability, T/C",compound 0.0316 µM,92.6% [middle of 4 runs]
same,"viability, T/C",compound 0.1 µM,87.7% [middle of 4 runs]
same,"viability, T/C",compound 0.316 µM,64.9% [middle of 4 runs]
same,"viability, T/C",compound 1 µM,40.4% [middle of 4 runs]
same,IC50,curve of compound,639 nM [middle of 4 runs]
